Source: patent publication US8148347B2, “Inhibition of interaction of PSD93 and PSDS95 with nNOS and NMDA receptors” (The Johns Hopkins University, priority 2000, dated 2012)

System: PSD-95/SAP90
Assay: immunoblot of PSD-95/SAP90 expression in spinal cord of OND-treated rats
Format: in vivo, rat
Source text: Antisense ONDs, widely used as research tools and even as drugs in clinical trials, inhibit protein expression by the mechanisms of (1) steric blockade of ribosomal subunit attachment to mRNA at the 5′ cap site; (2) interference with proper mRNA splicing through antisense binding to splice donor or splice acceptor sites; (3) Rnase-H-mediated degradation of hybridized mRNA.^18 To further examine whether the action of antisense OND for PSD-95/SAP90 above was specifically due to selective decrease or lack of PSD-95/SAP90 but not other proteins in the spinal cord, we detected PSD-95/SAP90, NMDA receptor subunits 2A/2B (NR2A/2B), neuronal nitric oxide synthase (nNOS) and SAP-102 in homogenates from crude lumbar enlargement segments in the normal, saline-treated (control) and OND-treated rats. […]
Animal preparation and behavioral testing. […] Nociception was evaluated by the radiant heat tail-flick test. The doses and time point of maximal effect of NMDA used in the present study were determined based on a previous study.^24 The tail-flick apparatus (Model 33B Tail Flick Analgesy Meter, IITC Life Science, Woodland Hills, Calif., USA) generated a beam of radiant heat that was focused on the underside of the tail, 5 cm from the tip. […] Nociception was assessed by the time required to induce tail-flick after applying radiant heat to the skin of the tail. […]

Row | Substance | PSD-95/SAP90 protein in the postsynaptic density (PSD) fraction of the spinal cord (FIGS. 1Aa and b) | PSD-95/SAP90 expression (spinal cord, after intrathecal treatment (FIG. 1Ab))
1 | 5′-AAGCCCTTGTTCCCATTT-3′ (DNA, backbone and methylation of C not given here; listed as Rattus rattus) [MS, missense OND control, reference compound] | enriched | 
2 | 5′-TGTGATCTCCTCATACTC-3′ (DNA, backbone and methylation of C not given here; listed as Rattus rattus) [antisense oligonucletide corresponding to the PDZ domain nucleotides 241 to 258 of rat PSD-95/SAP90 mRNA] |  | < 15 % of control
